Measured values as given in ChEMBL document CHEMBL3352701, “Discovery of a 1,2-bis(3-indolyl)ethane that selectively inhibits the pyruvate kinase of methicillin-resistant Staphylococcus aureus over human isoforms” (Bioorg Med Chem Lett, 2014).
Converted amounts (≈) assume the structure as drawn.

Legend:
[1] = target: T1, Pyruvate kinase PKM (Homo sapiens, UniProt P14618); assay: Inhibition of purified human N-terminal His-tagged PK-M2 by LDH-coupled continuous assay
Target sequence in this assay (P14618 whole entry): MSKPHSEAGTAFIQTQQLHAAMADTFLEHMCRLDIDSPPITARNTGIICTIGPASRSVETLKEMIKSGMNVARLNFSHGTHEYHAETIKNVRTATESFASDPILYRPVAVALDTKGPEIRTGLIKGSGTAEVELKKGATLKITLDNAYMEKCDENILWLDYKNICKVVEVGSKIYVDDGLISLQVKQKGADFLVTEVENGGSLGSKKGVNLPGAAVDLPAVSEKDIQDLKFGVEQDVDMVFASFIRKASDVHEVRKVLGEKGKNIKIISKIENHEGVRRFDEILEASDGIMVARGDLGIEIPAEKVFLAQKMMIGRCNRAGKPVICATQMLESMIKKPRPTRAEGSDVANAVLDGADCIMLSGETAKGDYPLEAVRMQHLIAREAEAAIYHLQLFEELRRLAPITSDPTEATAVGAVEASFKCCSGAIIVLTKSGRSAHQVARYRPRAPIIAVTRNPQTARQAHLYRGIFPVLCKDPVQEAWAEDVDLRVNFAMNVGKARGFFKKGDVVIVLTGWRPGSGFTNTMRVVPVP

[2] = target: T1, Pyruvate kinase PKM; conditions: 10 uM
Target sequence in this assay (P14618 2-531 limits assumed): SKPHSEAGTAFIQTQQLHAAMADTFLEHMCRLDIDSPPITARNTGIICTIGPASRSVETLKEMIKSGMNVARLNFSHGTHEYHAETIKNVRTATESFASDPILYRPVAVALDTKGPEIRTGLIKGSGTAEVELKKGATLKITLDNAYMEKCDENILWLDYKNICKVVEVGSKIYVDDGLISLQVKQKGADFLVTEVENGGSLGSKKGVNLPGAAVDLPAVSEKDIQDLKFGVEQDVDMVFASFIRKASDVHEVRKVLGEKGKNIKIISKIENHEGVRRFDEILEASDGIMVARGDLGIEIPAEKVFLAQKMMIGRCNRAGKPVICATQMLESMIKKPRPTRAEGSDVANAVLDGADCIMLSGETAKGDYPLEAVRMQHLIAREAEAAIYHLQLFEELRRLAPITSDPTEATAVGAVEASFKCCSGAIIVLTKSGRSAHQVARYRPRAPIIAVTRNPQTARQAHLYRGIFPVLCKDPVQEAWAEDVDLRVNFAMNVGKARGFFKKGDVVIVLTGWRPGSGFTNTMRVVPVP
Description: Inhibition of purified human N-terminal His-tagged PK-M2 at 10 uM by LDH-coupled continuous assay

[3] = target: T2, Pyruvate kinase PKLR (Homo sapiens, UniProt P30613); assay: Inhibition of purified human N-terminal His-tagged PK-L by LDH-coupled continuous assay
Target sequence in this assay (P30613 whole entry): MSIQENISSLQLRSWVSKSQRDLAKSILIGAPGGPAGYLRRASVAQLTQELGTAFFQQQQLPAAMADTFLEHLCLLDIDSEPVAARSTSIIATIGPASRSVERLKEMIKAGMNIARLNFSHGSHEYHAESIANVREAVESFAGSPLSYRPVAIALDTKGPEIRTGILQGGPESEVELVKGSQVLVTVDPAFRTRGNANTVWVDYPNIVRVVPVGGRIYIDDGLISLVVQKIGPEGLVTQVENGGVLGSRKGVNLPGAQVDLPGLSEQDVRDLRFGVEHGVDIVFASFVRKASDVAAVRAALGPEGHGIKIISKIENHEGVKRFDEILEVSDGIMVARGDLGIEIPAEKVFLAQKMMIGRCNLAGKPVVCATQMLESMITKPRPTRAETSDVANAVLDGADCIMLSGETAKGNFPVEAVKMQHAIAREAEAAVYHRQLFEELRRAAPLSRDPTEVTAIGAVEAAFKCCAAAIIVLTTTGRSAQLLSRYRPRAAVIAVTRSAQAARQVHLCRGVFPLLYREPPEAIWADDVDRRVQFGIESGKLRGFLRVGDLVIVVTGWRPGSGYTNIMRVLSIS

[4] = target: T1, Pyruvate kinase PKM; conditions: 10 uM; remark: listed apart in the source
Target sequence in this assay (P14618 2-531 limits assumed): as the sequence (P14618 2-531 limits assumed) above
Description: Inhibition of purified human N-terminal His-tagged PK-M1 at 10 uM by LDH-coupled continuous assay

[5] = target: T2, Pyruvate kinase PKLR; conditions: 10 uM
Target sequence in this assay (P30613 whole entry, looked up): as the sequence (P30613 whole entry) above
Description: Inhibition of purified human N-terminal His-tagged PK-L at 10 uM by LDH-coupled continuous assay

[6] = target: T3, Pyruvate kinase (Staphylococcus aureus (strain MRSA252), UniProt Q6GG09); assay: Inhibition of purified methicillin-resistant Staphylococcus aureus N-terminal His-tagged pyruvate kinase by LDH-coupled continuous assay
T3 sequence (Q6GG09 whole entry): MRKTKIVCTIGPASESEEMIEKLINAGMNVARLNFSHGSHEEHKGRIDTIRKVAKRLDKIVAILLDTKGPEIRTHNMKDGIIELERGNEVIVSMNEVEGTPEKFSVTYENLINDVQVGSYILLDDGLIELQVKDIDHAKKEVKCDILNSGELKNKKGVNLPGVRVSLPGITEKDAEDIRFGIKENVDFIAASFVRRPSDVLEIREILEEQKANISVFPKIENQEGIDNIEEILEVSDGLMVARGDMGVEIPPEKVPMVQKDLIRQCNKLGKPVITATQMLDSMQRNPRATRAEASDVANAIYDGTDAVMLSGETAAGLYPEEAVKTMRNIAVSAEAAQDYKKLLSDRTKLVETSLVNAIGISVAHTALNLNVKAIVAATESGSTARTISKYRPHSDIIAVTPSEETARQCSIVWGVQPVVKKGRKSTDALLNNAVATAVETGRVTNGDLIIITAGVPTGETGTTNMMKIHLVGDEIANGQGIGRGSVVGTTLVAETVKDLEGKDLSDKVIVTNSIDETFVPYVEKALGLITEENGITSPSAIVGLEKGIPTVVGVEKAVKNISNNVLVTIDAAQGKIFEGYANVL

[7] = target: T1, Pyruvate kinase PKM; assay: Inhibition of purified human N-terminal His-tagged PK-M1 by LDH-coupled continuous assay
Target sequence in this assay (P14618 whole entry): as the sequence (P14618 whole entry) above

[8] = target: T4, Pyruvate kinase (Staphylococcus aureus (strain MRSA252)) (UniProt Q6GG09); assay: Inhibition of purified methicillin-resistant Staphylococcus aureus N-terminal His-tagged pyruvate kinase at 10 uM by LDH-coupled continuous assay
T4 sequence (whole entry): T3 sequence (Q6GG09 whole entry)

[9] = target: T2, Pyruvate kinase PKLR; assay: Inhibition of purified human N-terminal His-tagged PK-R by LDH-coupled continuous assay
Target sequence in this assay (P30613 whole entry): as the sequence (P30613 whole entry) above

[10] = target: T2, Pyruvate kinase PKLR; conditions: 10 uM; remark: listed apart in the source
Target sequence in this assay (P30613 whole entry, looked up): as the sequence (P30613 whole entry) above
Description: Inhibition of purified human N-terminal His-tagged PK-R at 10 uM by LDH-coupled continuous assay

[11] = target: T4, Pyruvate kinase (Staphylococcus aureus (strain MRSA252)); assay: Inhibition of purified methicillin-resistant Staphylococcus aureus N-terminal His-tagged pyruvate kinase at 50 uM by LDH-coupled continuous assay
[12] = target: T2, Pyruvate kinase PKLR; assay: Inhibition of purified human N-terminal His-tagged PK-R at 50 uM by LDH-coupled continuous assay
Target sequence in this assay (P30613 whole entry, looked up): as the sequence (P30613 whole entry) above

[13] = target: T1, Pyruvate kinase PKM; assay: Inhibition of purified human N-terminal His-tagged PK-M1 at 50 uM by LDH-coupled continuous assay
Target sequence in this assay (P14618 2-531 limits assumed): as the sequence (P14618 2-531 limits assumed) above

[14] = target: T1, Pyruvate kinase PKM; assay: Inhibition of purified human N-terminal His-tagged PK-M2 at 50 uM by LDH-coupled continuous assay
Target sequence in this assay (P14618 2-531 limits assumed): as above

[15] = target: T2, Pyruvate kinase PKLR; assay: Inhibition of purified human N-terminal His-tagged PK-L at 50 uM by LDH-coupled continuous assay
Target sequence in this assay (P30613 whole entry, looked up): as the sequence (P30613 whole entry) above

[16] = target: T2, Pyruvate kinase PKLR; assay: Inhibition of purified human N-terminal His-tagged PK-R at 150 uM by LDH-coupled continuous assay
Target sequence in this assay (P30613 whole entry, looked up): as the sequence (P30613 whole entry) above

[17] = target: T4, Pyruvate kinase (Staphylococcus aureus (strain MRSA252)); assay: Inhibition of purified methicillin-resistant Staphylococcus aureus N-terminal His-tagged pyruvate kinase at 150 uM by LDH-coupled continuous assay
[18] = target: T1, Pyruvate kinase PKM; assay: Inhibition of purified human N-terminal His-tagged PK-M2 at 150 uM by LDH-coupled continuous assay
Target sequence in this assay (P14618 2-531 limits assumed): as the sequence (P14618 2-531 limits assumed) above

[19] = target: T1, Pyruvate kinase PKM; assay: Inhibition of purified human N-terminal His-tagged PK-M1 at 150 uM by LDH-coupled continuous assay
Target sequence in this assay (P14618 2-531 limits assumed): as above

[20] = target: T2, Pyruvate kinase PKLR; assay: Inhibition of purified human N-terminal His-tagged PK-L at 150 uM by LDH-coupled continuous assay
Target sequence in this assay (P30613 whole entry, looked up): as the sequence (P30613 whole entry) above

[21] = test system: Staphylococcus aureus; assay: Antimicrobial activity against Staphylococcus aureus ATCC 29213 after 24 hrs by CLSI microtiter method; format: functional; conditions: ATCC 29213, 24 h
[22] = target: T1, Pyruvate kinase PKM; assay: Inhibition of purified human N-terminal His-tagged PK-M2 at 40 uM by LDH-coupled continuous assay
[23] = target: T2, Pyruvate kinase PKLR; assay: Inhibition of purified human N-terminal His-tagged PK-L at 40 uM by LDH-coupled continuous assay
[24] = target: T4, Pyruvate kinase (Staphylococcus aureus (strain MRSA252)); conditions: 40 uM
Description: Inhibition of purified methicillin-resistant Staphylococcus aureus N-terminal His-tagged pyruvate kinase at 40 uM by LDH-coupled continuous assay

[25] = target: T1, Pyruvate kinase PKM; assay: Inhibition of purified human N-terminal His-tagged PK-M1 at 40 uM by LDH-coupled continuous assay
[26] = target: T2, Pyruvate kinase PKLR; assay: Inhibition of purified human N-terminal His-tagged PK-R at 40 uM by LDH-coupled continuous assay
[27] = target: T2, Pyruvate kinase PKLR; assay: Inhibition of purified human N-terminal His-tagged PK-R at 100 uM by LDH-coupled continuous assay
[28] = target: T1, Pyruvate kinase PKM; assay: Inhibition of purified human N-terminal His-tagged PK-M2 at 100 uM by LDH-coupled continuous assay
[29] = target: T2, Pyruvate kinase PKLR; assay: Inhibition of purified human N-terminal His-tagged PK-L at 100 uM by LDH-coupled continuous assay
[30] = target: T1, Pyruvate kinase PKM; assay: Inhibition of purified human N-terminal His-tagged PK-M1 at 100 uM by LDH-coupled continuous assay
[31] = target: T4, Pyruvate kinase (Staphylococcus aureus (strain MRSA252)); assay: Inhibition of purified methicillin-resistant Staphylococcus aureus N-terminal His-tagged pyruvate kinase at 100 uM by LDH-coupled continuous assay

Q: With `O=[N+]([O-])c1ccc2c(CCc3c[nH]c4ccccc34)c[nH]c2c1` as the compound, how does the IC50 [1] read?
A: 54.6 µM

Q: What about the inhibition [2] of the same compound?
A: 2.8%

Q: What about the IC50 [3] of the same compound?
A: 21.5 µM

Q: And the inhibition [4]?
A: 1.1%

Q: What about the inhibition [5] of the same compound?
A: 3.3%

Q: And the IC50 ([6]; read-out: IC50)?
A: 0.9 µM

Q: What about the IC50 [7] of the same compound?
A: 95.9 µM

Q: What about the inhibition [8] of the same compound?
A: 59.6%

Q: What about the IC50 [9] of the same compound?
A: 18.2 µM

Q: What about the inhibition [10] of the same compound?
A: 3%

Q: Which results are given for `Fc1cc(Cl)cc2c(CCc3c[nH]c4ccccc34)c[nH]c12`?
A: inhibition [11]: 88.2%; inhibition [12]: 85.4%; inhibition [13]: 1.1%; inhibition [14]: 80.9%; IC50 ([6]; read-out: IC50): 4.6 µM; inhibition [15]: 95.7%

Q: With `COc1ccc2[nH]cc(CCc3c[nH]c4ccccc34)c2c1` as the compound, how does the IC50 ([6]; read-out: IC50) read?
A: 38.6 µM

Q: With `Fc1ccc2[nH]cc(CCc3c[nH]c4ccccc34)c2c1` as the compound, how does the inhibition [16] read?
A: 99%

Q: What about the inhibition [17] of the same compound?
A: 108%

Q: What about the inhibition [18] of the same compound?
A: 85.5%

Q: And the inhibition [19]?
A: 55.1%

Q: What about the IC50 ([6]; read-out: IC50) of the same compound?
A: 19.8 µM

Q: What about the inhibition [20] of the same compound?
A: 101%

Q: With `Cc1ccc2[nH]cc(CCc3c[nH]c4ccccc34)c2c1` as the compound, how does the IC50 ([6]; read-out: IC50) read?
A: 32.8 µM

Q: With `N#Cc1ccc2c(CCc3c[nH]c4ccccc34)c[nH]c2c1` as the compound, how does the IC50 [6] read?
A: Not Active

Q: And the MIC [21]?
A: 16 µg/mL (≈ 56.1 µM)

Q: Which IC50 ([6]; read-out: IC50) does the source give for `N#Cc1ccc2[nH]cc(CCc3c[nH]c4ccccc34)c2c1` here?
A: 4.2 µM

Q: And the inhibition [22]?
A: 1.1%

Q: And the inhibition [23]?
A: 62.4%

Q: And the inhibition [24]?
A: 82.9%

Q: And the inhibition [25]?
A: -0.5%

Q: What about the inhibition [26] of the same compound?
A: 53.5%

Q: With `COc1ccc2c(CCc3c[nH]c4ccccc34)c[nH]c2c1` as the compound, how does the IC50 [6] read?
A: Not Active

Q: With `Clc1ccc2c(CCc3c[nH]c4ccccc34)c[nH]c2c1` as the compound, how does the IC50 ([6]; read-out: IC50) read?
A: 272 µM

Q: Which IC50 ([6]; read-out: IC50) does the source give for `CCN(C(C)=O)c1ccc2c(CCc3c[nH]c4ccccc34)c[nH]c2c1` here?
A: 148 µM

Q: What does the source list for `O=[N+]([O-])c1cccc2[nH]cc(CCc3c[nH]c4ccccc34)c12`?
A: inhibition [11]: 92.8%; inhibition [12]: 71.8%; inhibition [13]: 2.2%; inhibition [14]: 50.1%; IC50 ([6]; read-out: IC50): 5.7 µM; inhibition [15]: 75.5%

Q: For `Cc1ccc2c(CCc3c[nH]c4ccccc34)c[nH]c2c1`, which IC50 ([6]; read-out: IC50) is on record?
A: 294 µM

Q: Which results are given for `FC(F)(F)c1ccc2[nH]cc(CCc3c[nH]c4ccccc34)c2c1`?
A: inhibition [27]: 91.4%; inhibition [28]: 95.2%; inhibition [29]: 85.4%; inhibition [30]: 36.7%; IC50 ([6]; read-out: IC50): 13.3 µM; inhibition [31]: 88.4%

Q: How did the IC50 ([6]; read-out: IC50) turn out when `c1ccc2c(CCc3c[nH]c4ccccc34)c[nH]c2c1` was run?
A: 57.3 µM

Q: How did the inhibition [27] turn out when `Clc1ccc2[nH]cc(CCc3c[nH]c4ccccc34)c2c1` was run?
A: 95%

Q: And the inhibition [28]?
A: 98.7%

Q: What about the inhibition [29] of the same compound?
A: 103%

Q: And the inhibition [30]?
A: 30.8%

Q: What about the IC50 ([6]; read-out: IC50) of the same compound?
A: 12.5 µM

Q: And the inhibition [31]?
A: 114%

Q: How did the IC50 ([6]; read-out: IC50) turn out when `O=C(C(=O)c1c[nH]c2ccccc12)c1c[nH]c2ccccc12` was run?
A: 50.2 µM
